# Where “and” joins values, the source holds several entries; their conditions need not be identical. Identical values can stand only once.
# How the values were obtained:
# [1] = tested on: A549 and H1975 cells; test: ROS generation, CM-H2DCFDA fluorimetric assay, statements covering both cancer cell lines; format: cell-based, human; details: 1 h; for Effect of NAC addition on ROS generation: 20 μM compound, 50 μM NAC; for ROS generation compared with cisplatin, tamoxifen and 5-fluorouracil: both cancer cell types, 20 μM
# Procedure: (§1) Then, detached cells were resuspended in 0.5 mL of phosphate-buffered saline (PBS) containing 10 μM·L^–1 fluorescent probe 5-(and-6)-chloromethyl-2′,7′-dichlorodihydrofluorescein diacetate-acetyl ester (CM-H2DCFDA) and incubated for 15 min at 37 °C. Afterward, the incubation cells were centrifuged at 13,000 rpm for 30 s and resuspended in 0.5 mL of PBS. The fluorescence of each sample (index of ROS levels) was read at 488 nm (λexcitation) and 520 nm (λemission). The results were expressed as DCF fluorescence per mg cell proteins normalized vs control.
# [2] = tested on: BEAS-2B cells; test: Crystal violet cell viability / antiproliferative assay, BEAS-2B; format: cell-based, human; details: for IC50: nonmalignant human bronchial epithelium BEAS-2B cells, treatment time 72 h
# Procedure: (§2) Human non-small-cell lung cancer cell lines A549 and H1975 and the human bronchial epithelial BEAS-2B cell line were purchased from ATCC (Manassas, VA). Cells were cultured in Roswell Park Memorial Institute (RPMI)-1640 media supplemented with 10% v/v fetal bovine serum, 100 U·mL^–1 penicillin, and 100 μg·mL^–1 streptomycin. Cells were grown in a humidified atmosphere at 37 °C and 5% CO2.
# (§3) Crystal violet staining was used to assess cell viability. […] After 72 h, the medium was discarded and cells were stained for 30 min with 5% w/v crystal violet solution in 66% v/v methanol, 200 μL per well. After staining, the crystal violet solution was removed, and the 24-well plate was washed with water to eliminate the excess solution. When dried, the plates were photographed. Quantitation of crystal violet staining was performed after solubilizing the dye in 10% acetic acid, 400 μL per well, and reading the absorbance of each well at 540 nm (HT Synergy 96-well microplate reader, Bio-Tek Instruments, Winooski, VT). The relative absorbance of untreated cells was considered as 100% viability; results were expressed as a percentage of viable cells vs untreated cells.
# [3] = tested on: A549 cells; test: Crystal violet cell viability / antiproliferative assay, A549; format: cell-based, human; details: for Selectivity index SInd, A549: IC50(BEAS-2B)/IC50(A549); for IC50: human NSCLC A549 cells, treatment time 72 h
# Procedure: as §2, §3
# [4] = tested on: H1975 cells; test: Crystal violet cell viability / antiproliferative assay, H1975; format: cell-based, human; details: for Selectivity index SInd, H1975: IC50(BEAS-2B)/IC50(H1975); for IC50: human NSCLC H1975 cells, treatment time 72 h
# Procedure: as §2, §3
# [5] = tested on: H1975 cells; test: ROS generation, CM-H2DCFDA fluorimetric assay, H1975; format: cell-based, human; details: 20 μM, 1 h
# Procedure: as §1
# [6] = Cyclic voltammetry in dichloromethane; format: physicochemical; details: for KC comproportionation constant: KC = exp(nF/RT)ΔE1/2, 25 °C; for Difference between the formal potentials: first and second oxidation; for E1°′ formal potential / E2°′ formal potential / E3°′ formal potential: vs FcH/[FcH]+, CH2Cl2, 0.1 mol·L–1 [NBu4][B(C6F5)4], 25 °C, scan rate 100 mV·s–1
# Procedure: Electrochemical studies of compounds 1a, 1c, 2a, and 2c were carried out using cyclic voltammetry (CV) and square-wave voltammetry (SWV) (Table 1; Figures 5 (compounds 1a, 2a) and S13 (compounds 1c, 2c), see the SI). A solution of [NBu4][B(C6F5)4] (0.1 mol·L^–1) in anhydrous CH2Cl2 was used as the supporting electrolyte.[79] The choice of the supporting electrolyte was motivated by the beneficial properties of [B(C6F5)4]^− ions. In contrast to smaller counter ions such as [Cl]^−, [PF6]^−, [BF4]^−, or [ClO4]^−, [B(C6F5)4]^− tolerates the stabilization of greatly charged species in solution, minimizing undesired ion-pairing effects.[80],[81] The voltammetry experiments were performed at 25 °C. All potentials are referenced to the FcH/[FcH]^+ (Fc = Fe(η^5-C5H4)(η^5-C5H5)) redox couple (E°′ = 0 mV).[82]
# Measurements on 1.0 mmol·L^–1 solutions of analytes 1a, 1c, 2a, and 2c in anhydrous dichloromethane solutions, containing 0.1 mol·L^–1 [NBu4][B(C6F5)4] as the supporting electrolyte, were conducted under an atmosphere of argon at 25 °C. A three-electrode cell, which utilized a Pt auxiliary electrode, a glassy carbon working electrode (surface area 0.031 cm^2), and an Ag/Ag^+ (0.01 mol·L^–1 AgNO3) reference electrode, was used as described in refs ([82]) and ([102]−[104]). […] Experimental potentials were referenced against an Ag/Ag^+ reference electrode, but results presented are referenced against the ferrocene [FcH/FcH^+ couple = 220 mV vs Ag/Ag^+, ΔEp = 61 mV; FcH = Fe(η^5-C5H5)2] as an internal standard.[82] When decamethylferrocene [Fc* = Fe(η^5-C5Me5)2] was used as an internal standard, the experimentally measured potentials were converted into Evs FcH/FcH^+ (under our conditions, the Fc*/Fc*^+ couple was at −614 mV vs FcH/FcH^+, ΔEp = 60 mV).
# [7] = tested on: A549 cells; test: ROS generation, CM-H2DCFDA fluorimetric assay, A549; format: cell-based, human; details: 20 μM, 1 h
# Procedure: as §1
# [8] = versus cisplatin, tamoxifen, 5-fluorouracil
Compound,Effect of NAC addition on ROS generation [1],IC50 [2] [µM],"Selectivity index SInd, A549 ([3]; 72 h)",IC50 [3] [µM],"Selectivity index SInd, H1975 ([4]; 72 h)",IC50 ([4]; NCI-H1975) [µM],IC50 [4] [µM],"ROS generation compared with cisplatin, tamoxifen and 5-fluorouracil [1]","Increase of cell viability with NAC compared to cells treated only with compound ([2]; BEAS-2B cells, 20 μM compound, 50 μM NAC, 72 h)","Increase of cell viability with NAC compared to cells treated only with compound ([3]; A549 cells, 20 μM compound, 50 μM NAC, 72 h)","ROS generated, times more than 1c [5]","ROS generation, times more potent than reference drugs [5, 8]","Increase of cell viability with NAC compared to cells treated only with compound ([4]; H1975 cells, 20 μM compound, 50 μM NAC, 72 h) [%]",KC comproportionation constant [6],Difference between the formal potentials [6] [mV],E1°′ formal potential [6],E2°′ formal potential [6],"ROS generated, times more than 1c [7] [times]","ROS generation, times more potent than reference drugs [7, 8] [times]",E3°′ formal potential [6]
"O=c1[nH]cc(F)c(=O)[nH]1 [5-fluorouracil, reference compound]",almost no effect,6 ± 0.1,0.1,69 ± 21,0.2,32 ± 12,–,–,–,–,–,–,–,–,–,–,–,–,–,–
"N.N.[Cl][Pt][Cl] [cisplatin, reference compound]",almost no effect,3 ± 0.1,0.02,108 ± 12,0.7,–,4 ± 0.1,–,–,–,–,–,–,–,–,–,–,–,–,–
"Cc1cn([C@H]2C[C@H](n3nnc(-[c-]4cccc4)c3C#C[c-]3cccc3)[C@@H](CO)O2)c(=O)[nH]c1=O.[Fe+2].[Fe+2].c1cc[cH-]c1.c1cc[cH-]c1 [compound 1a, 3′-Deoxy-3′-(4-ferrocenyl-5-ethynylferrocenyl-1H-1,2,3-triazol-1-yl)thymidine]",–,469 ± 10,8.2,57 ± 18,93.8,–,5 ± 2,more effective ROS generators,analogous increase,analogous increase,about 1.6 times,about 2 times,~20,2412,200,80 mV and 80 (60) mV,280 mV and 280 (66) mV,~2.5,~2.5,–
"Cc1cn([C@H]2C[C@H](n3cc(-[c-]4cccc4)nn3)[C@@H](CO)O2)c(=O)[nH]c1=O.[Fe+2].c1cc[cH-]c1 [compound 1c, 3′-Deoxy-3′-(4-ferrocenyl-1H-1,2,3-triazol-1-yl)thymidine]",–,215 ± 7,0.9,230 ± 13,0.5,–,456 ± 17,more effective ROS generators,–,–,–,–,–,–,–,60 mV and 60 (66) mV,–,–,–,–
"O=C(CCn1nnc(-[c-]2cccc2)c1C#C[c-]1cccc1)[c-]1cccc1.[Fe+2].[Fe+2].[Fe+2].c1cc[cH-]c1.c1cc[cH-]c1.c1cc[cH-]c1 [compound 2a, 1-(3-Propionylferrocenyl)-4-ferrocenyl-5-ethynylferrocenyl-1H-1,2,3-triazole]",–,257 ± 5,1.4,184 ± 7,3.0,–,84 ± 5,–,–,–,–,–,–,9426,235,45 mV and 45 (60) mV,280 mV and 280 (61) mV,–,–,365 mV and 365 (63) mV
"O=C(CCn1cc(-[c-]2cccc2)nn1)[c-]1cccc1.[Fe+2].[Fe+2].c1cc[cH-]c1.c1cc[cH-]c1 [compound 2c, 1-(3-Propionyloferrocenyl)-4-ferrocenyl-1H-1,2,3-triazole]",–,198 ± 7,0.2,805 ± 72,1.6,–,122 ± 45,–,–,–,–,–,–,–,–,20 mV and 20 (61) mV,–,–,–,330 mV and 330 (67) mV
CC/C(=C(\c1ccccc1)c1ccc(OCCN(C)C)cc1)c1ccccc1 [tamoxifen],almost no effect,–,–,–,–,–,–,–,–,–,–,–,–,–,–,–,–,–,–,–
